Measured values reported in patent US12077503B2, “Substituted cyclic amides and their use as herbicides” (FMC CORPORATION, priority 2015, dated 2024).

Experiments:
Type in all cases: in vivo
[1] = test system: barnyardgrass (Echinochloa crus-galli); test: Test A postemergence; conditions: Echinochloa crus-galli, post-emergence, 240 h, postemergence
Summary of the method: (§1)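 Seeded soil received test chemicals as a preemergence directed spray, and seedlings at one to two leaves, 2–10 cm tall, received them postemergence, in a non-phytotoxic, surfactant-containing solvent mixture. Pots were held in a greenhouse for approximately 10 d, then rated for injury from 0, no effect, to 100, complete control.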

corn (Zea mays) = test: Test A postemergence; conditions: Zea mays, post-emergence, 240 h, postemergence
Summary of the method: as §1

[2] = test system: pigweed (Amaranthus retroflexus); test: Test A postemergence; conditions: Amaranthus retroflexus, post-emergence, 240 h, postemergence
Summary of the method: as §1

[3] = test system: blackgrass (Alopecurus myosuroides); test: Test A postemergence; conditions: Alopecurus myosuroides, post-emergence, 240 h, postemergence
Summary of the method: as §1

[4] = test system: Galium (catchweed bedstraw, Galium aparine); test: Test A postemergence; conditions: Galium, post-emergence, 240 h, postemergence
Summary of the method: as §1

[5] = test system: ragweed (common ragweed, Ambrosia elatior); test: Test A postemergence; conditions: Ambrosia artemisiifolia, post-emergence, 240 h, postemergence
Summary of the method: as §1

[6] = test system: giant foxtail (Setaria faberii); test: Test A postemergence; conditions: Setaria faberi, post-emergence, 240 h, postemergence
Summary of the method: as §1

[7] = test system: ryegrass, Italian (Italian ryegrass, Lolium multiflorum); test: Test A postemergence; conditions: Lolium multiflorum, post-emergence, 240 h, postemergence
Summary of the method: as §1

[8] = test system: wheat (Triticum aestivum); test: Test A postemergence; conditions: Triticum aestivum, post-emergence, 240 h, postemergence
Summary of the method: as §1

[9] = test system: barnyardgrass (Echinochloa crus-galli); test: Test A preemergence; conditions: Echinochloa crus-galli, pre-emergence, 240 h, preemergence, 0 to 100 scale where 0 is no effect and 100 is complete control, read-out: Barnyardgrass plant response rating
Summary of the method: as §1

Kochia (Kochia scoparia) = test: Test A preemergence; conditions: Bassia scoparia, pre-emergence, 240 h, preemergence, 0 to 100 scale where 0 is no effect and 100 is complete control, read-out: Kochia plant response rating
Summary of the method: as §1

[10] = test system: pigweed (Amaranthus retroflexus); test: Test A preemergence; conditions: Amaranthus retroflexus, pre-emergence, 240 h, preemergence, 0 to 100 scale where 0 is no effect and 100 is complete control, read-out: Pigweed plant response rating
[11] = test system: ragweed (common ragweed, Ambrosia elatior); test: Test A preemergence; conditions: Ambrosia artemisiifolia, pre-emergence, 240 h, preemergence, 0 to 100 scale where 0 is no effect and 100 is complete control, read-out: Ragweed plant response rating
Summary of the method: as §1

[12] = test system: giant foxtail (Setaria faberii); test: Test A preemergence; conditions: Setaria faberi, pre-emergence, 240 h, preemergence, 0 to 100 scale where 0 is no effect and 100 is complete control, read-out: Foxtail, Giant plant response rating
Summary of the method: as §1

[13] = test system: ryegrass, Italian (Italian ryegrass, Lolium multiflorum); test: Test A preemergence; conditions: Lolium multiflorum, pre-emergence, 240 h, preemergence, 0 to 100 scale where 0 is no effect and 100 is complete control, read-out: Ryegrass, Italian plant response rating
Summary of the method: as §1

[14] = 125 g ai/ha, visual injury rating, approximately 10 d

Question: CSc1ccccc1NC(=O)[C@H]1C(=O)N(C)C[C@@H]1c1ccc(C(F)(F)F)nc1 [Compound 1198] was tested. Which pest or weed control at 125 g/ha ([1]; 125 g ai/ha, visual injury vs untreated controls after approx. 10 d, 0 = no effect, 100 = complete control, read-out: Barnyardgrass plant response rating (0 to 100 scale)) did it give?
Answer: 80%

Question: What about the pest or weed control at 500 g/ha ([1]; 500 g ai/ha, 0 to 100 scale, 0 is no effect, 100 is complete control, read-out: Barnyardgrass plant response rating) of the same compound?
Answer: 90%

Question: What about the plant injury at 125 g/ha (corn (Zea mays); 125 g ai/ha, visual injury vs untreated controls after approx. 10 d, 0 = no effect, 100 = complete control, read-out: Corn plant response rating (0 to 100 scale)) of the same compound?
Answer: 0%

Question: And the plant injury at 500 g/ha (corn (Zea mays); 500 g ai/ha, 0 to 100 scale, 0 is no effect, 100 is complete control, read-out: Corn plant response rating)?
Answer: 20%

Question: What about the pest or weed control at 125 g/ha ([2]; 125 g ai/ha, visual injury vs untreated controls after approx. 10 d, 0 = no effect, 100 = complete control, read-out: Pigweed plant response rating (0 to 100 scale)) of the same compound?
Answer: 40%

Question: And the pest or weed control at 500 g/ha ([2]; 500 g ai/ha, 0 to 100 scale, 0 is no effect, 100 is complete control, read-out: Pigweed plant response rating)?
Answer: 70%

Question: What about the pest or weed control at 125 g/ha ([3]; 125 g ai/ha, visual injury vs untreated controls after approx. 10 d, 0 = no effect, 100 = complete control, read-out: Blackgrass plant response rating (0 to 100 scale)) of the same compound?
Answer: 20%

Question: What about the pest or weed control at 500 g/ha ([3]; 500 g ai/ha, 0 to 100 scale, 0 is no effect, 100 is complete control, read-out: Blackgrass plant response rating) of the same compound?
Answer: 60%

Question: What about the pest or weed control at 125 g/ha ([4]; 125 g ai/ha, visual injury vs untreated controls after approx. 10 d, 0 = no effect, 100 = complete control, read-out: Galium plant response rating (0 to 100 scale)) of the same compound?
Answer: 40%

Question: What about the pest or weed control at 500 g/ha ([4]; 500 g ai/ha, 0 to 100 scale, 0 is no effect, 100 is complete control, read-out: Galium plant response rating) of the same compound?
Answer: 50%

Question: And the pest or weed control at 125 g/ha ([5]; 125 g ai/ha, visual injury vs untreated controls after approx. 10 d, 0 = no effect, 100 = complete control, read-out: Ragweed plant response rating (0 to 100 scale))?
Answer: 0%

Question: What about the pest or weed control at 500 g/ha ([5]; 500 g ai/ha, 0 to 100 scale, 0 is no effect, 100 is complete control, read-out: Ragweed plant response rating) of the same compound?
Answer: 30%

Question: And the pest or weed control at 125 g/ha ([6]; 125 g ai/ha, visual injury vs untreated controls after approx. 10 d, 0 = no effect, 100 = complete control, read-out: Foxtail, Giant plant response rating (0 to 100 scale))?
Answer: 80%

Question: And the pest or weed control at 500 g/ha ([6]; 500 g ai/ha, 0 to 100 scale, 0 is no effect, 100 is complete control, read-out: Foxtail, Giant plant response rating)?
Answer: 90%

Question: And the pest or weed control at 125 g/ha ([7]; 125 g ai/ha, visual injury vs untreated controls after approx. 10 d, 0 = no effect, 100 = complete control, read-out: Ryegrass, Italian plant response rating (0 to 100 scale))?
Answer: 0%

Question: What about the pest or weed control at 500 g/ha ([7]; 500 g ai/ha, 0 to 100 scale, 0 is no effect, 100 is complete control, read-out: Ryegrass, Italian plant response rating) of the same compound?
Answer: 30%

Question: And the plant injury at 125 g/ha ([8]; 125 g ai/ha, visual injury vs untreated controls after approx. 10 d, 0 = no effect, 100 = complete control, read-out: Wheat plant response rating (0 to 100 scale))?
Answer: 0%

Question: What about the plant injury at 500 g/ha ([8]; 500 g ai/ha, 0 to 100 scale, 0 is no effect, 100 is complete control, read-out: Wheat plant response rating) of the same compound?
Answer: 60%

Question: And the pest or weed control at 125 g/ha [9, 14]?
Answer: 70%

Question: And the pest or weed control at 500 g/ha ([9]; 500 g ai/ha)?
Answer: 100%

Question: And the pest or weed control at 125 g/ha (Kochia (Kochia scoparia); [14])?
Answer: 80%

Question: And the pest or weed control at 500 g/ha (Kochia (Kochia scoparia); 500 g ai/ha)?
Answer: 80%

Question: And the pest or weed control at 125 g/ha [10, 14]?
Answer: 70%

Question: What about the pest or weed control at 500 g/ha ([10]; 500 g ai/ha) of the same compound?
Answer: 100%

Question: What about the pest or weed control at 125 g/ha [11, 14] of the same compound?
Answer: 70%

Question: What about the pest or weed control at 500 g/ha ([11]; 500 g ai/ha) of the same compound?
Answer: 100%

Question: And the pest or weed control at 125 g/ha [12, 14]?
Answer: 100%

Question: And the pest or weed control at 500 g/ha ([12]; 500 g ai/ha)?
Answer: 100%

Question: And the pest or weed control at 125 g/ha [13, 14]?
Answer: 30%

Question: What about the pest or weed control at 500 g/ha ([13]; 500 g ai/ha) of the same compound?
Answer: 60%
